Assay results reported in patent US20050112573A1, “Method of detecting toxic substance” (priority 2001, published 2005).

Test system: yeast genes (level of expressed mRNA)
Assay: DNA chip analysis of expressed mRNA of yeast genes after 2 h culture with a toxic chemical substance
Type: cell-based, Saccharomyces cerevisiae S288C
Method: Yeast (Saccharomyces cerevtisiae S288C (α SUC2mal mel gap2 CUP1)) were cultured at 25° C. on YPD medium (yeast extract 1%, polypepton 2%, glucose 2%). One of toxic chemical substances was added to the cell at logarithmic growth phase, and the cell was further cultured for two hours. Cell was cultured without any chemical substance in the same condition, and was used as control. Concentrations of the chemical substances were defined to inhibit the growth of the yeast but not lead to death.
After the completion of cultivation, the culture was centrifuged to collect the cells. To the cells, sodium acetate buffer (50 mM sodium acetate, 10 mM EDTA, 1% SDS) was added, and the mixture was shaken at 65° C. for five minutes, followed by returning to room temperature, and obtaining the supernatant, which procedure was repeated two times. To the supernatant, ½ amount of a solution of phenol/chloroform was added, and the mixture was centrifuged to give a supernatant, which was added with an equal amount of chloroform, and the mixture was centrifuged to give a supernatant. To the supernatant, an equal amount of isopropanol containing 0.3 M sodium acetate was added, and the mixture was allowed to stand at room temperature for 30 minutes, after which the mixture was centrifuged to give a sediment of the whole RNAs. Seventy % ethanol was added to the sediment, and the mixture was again centrifuged to give a sediment, which was then dried and dissolved in water. mRNA was isolated from the whole RNAs as followings. In view of the fact that a poly A chain is attached to the 3′ terminus of mRNA, a polynucleotide having a poly T structure which was immobilized on the surface of latex beads was used to trap the mRNA, and then the mRNA was washed and eluted with spine column (Oligotex-dT30<Super>mRNA Purification Kit, Takara). Reverse transcription of the mRNA was conducted with a reverse transcriptase (Super Script II Reverse Transcriptase; catalogue No. 18064-014, GibcoBRL) using fluorescence-labeled nucleotides to give cDNAs that were introduced with Cy3-dUTP or Cy5-dUTP during the reverse transcription.
The labeled cDNAs were dissolved in TE buffer (10 mM Tris-HCl/1 mM EDTA, pH8.0), and the solution was dropped on the DNA chip containing the whole genes of yeast (DNA Chip Research Inc. Japan) so that the cDNAs were hybridized on the DNA chip at 65° C. for over 12 hours. The fluoresces intensity of the DNA chip was read with a scanner, and the ratio relative to the fluorescence intensity resulting from the absence of chemical substance was estimated as the following, which is shown in Tables 1 to 9: [formula]
In the Tables, “Intensity” indicated in the rightmost column is a value of the level of expressed mRNA of each gene in control cells as divided by the average level of the expressions of the whole genes.

## CCCCC[C@H](O)CC(=O)CCc1ccc(O)c(OC)c1 [(13), gingerol]
Gene YDR109C
  The level of expressed mRNA in the presence of chemical substance/absence: YDR109C: 1.4
Gene YDR128W
  The level of expressed mRNA in the presence of chemical substance/absence: YDR128W: 1.1
Gene YDR133C
  The level of expressed mRNA in the presence of chemical substance/absence: YDR133C: 0.1
Gene YDR140W
  The level of expressed mRNA in the presence of chemical substance/absence: YDR140W: 2.0
Gene YDR221W
  The level of expressed mRNA in the presence of chemical substance/absence: YDR221W: 1.0
Gene YDR250C
  The level of expressed mRNA in the presence of chemical substance/absence: YDR250C: 1.2
Gene YDR271C
  The level of expressed mRNA in the presence of chemical substance/absence: YDR271C: 1.5
Gene YDR278C
  The level of expressed mRNA in the presence of chemical substance/absence: YDR278C: 0.7
Gene YDR281C
  The level of expressed mRNA in the presence of chemical substance/absence: YDR281C: 0.7
Gene YDR316W
  The level of expressed mRNA in the presence of chemical substance/absence: YDR316W: 0.6
Gene YDR338C
  The level of expressed mRNA in the presence of chemical substance/absence: YDR338C: 1.3
Gene YDR366C
  The level of expressed mRNA in the presence of chemical substance/absence: YDR366C: 0.8
Gene YDR380W
  level of expressed mRNA in the presence of chemical substance/in its absence: 0.4
Gene YDR410C
  level of expressed mRNA in the presence of chemical substance/in its absence: 1.2
Gene YDR421W
  The level of expressed mRNA in the presence of chemical substance/absence: YDR421W: 0.6
Gene YDR425W
  The level of expressed mRNA in the presence of chemical substance/absence: YDR425W: 1.4
Gene YDR485C
  The level of expressed mRNA in the presence of chemical substance/absence: YDR485C: 1.2
Gene YDR487C
  level of expressed mRNA in the presence of chemical substance/in its absence: 1.5
Gene YDR502C
  level of expressed mRNA in the presence of chemical substance/in its absence: 1.2
Gene YDR504C
  The level of expressed mRNA in the presence of chemical substance/absence: YDR504C: 2.2
Gene YEL011W
  level of expressed mRNA in the presence of chemical substance/in its absence: 1.5
Gene YEL020C
  level of expressed mRNA in the presence of chemical substance/in its absence: 1.2
Gene YEL044W
  The level of expressed mRNA in the presence of chemical substance/absence: YEL044W: 1.3
Gene YER026C
  level of expressed mRNA in the presence of chemical substance/in its absence: 1.9
Gene YER069W
  level of expressed mRNA in the presence of chemical substance/in its absence: 1.4
Gene YER092W
  The level of expressed mRNA in the presence of chemical substance/absence: YER092W: 1.2
Gene YER182W
  The level of expressed mRNA in the presence of chemical substance/absence: YER182W: 0.9
Gene YFL042C
  The level of expressed mRNA in the presence of chemical substance/absence: YFL042C: 1.7
Gene YFR015C
  level of expressed mRNA in the presence of chemical substance/in its absence: 2.5
Gene YFR026C
  The level of expressed mRNA in the presence of chemical substance/absence: YFR026C: 1.1
Gene YFR056C
  The level of expressed mRNA in the presence of chemical substance/absence: YFR056C: 0.3
Gene YGL001C
  level of expressed mRNA in the presence of chemical substance/in its absence: 1.0
Gene YGL022W
  level of expressed mRNA in the presence of chemical substance/in its absence: 1.0
Gene YGL039W
  level of expressed mRNA in the presence of chemical substance/in its absence: 1.5
Gene YGL041C
  The level of expressed mRNA in the presence of chemical substance/absence: YGL041C: 1.0
Gene YGL045W
  The level of expressed mRNA in the presence of chemical substance/absence: YGL045W: 1.3
Gene YGL057C
  The level of expressed mRNA in the presence of chemical substance/absence: YGL057C: 1.3
Gene YGL088W
  The level of expressed mRNA in the presence of chemical substance/absence: YGL088W: 0.7
Gene YGL104C
  level of expressed mRNA in the presence of chemical substance/in its absence: 2.0
Gene YGL134W
  level of expressed mRNA in the presence of chemical substance/in its absence: 0.7
Gene YGL154C
  level of expressed mRNA in the presence of chemical substance/in its absence: 2.0
Gene YGL183C
  The level of expressed mRNA in the presence of chemical substance/absence: YGL183C: 1.5
Gene YGL209W
  level of expressed mRNA in the presence of chemical substance/in its absence: 1.9
Gene YGL223C
  The level of expressed mRNA in the presence of chemical substance/absence: YGL223C: 1.7
Gene YGL253W
  level of expressed mRNA in the presence of chemical substance/in its absence: 1.5
Gene YGR038W
  The level of expressed mRNA in the presence of chemical substance/absence: YGR038W: 1.2
Gene YGR060W
  level of expressed mRNA in the presence of chemical substance/in its absence: 0.6
Gene YGR139W
  The level of expressed mRNA in the presence of chemical substance/absence: YGR139W: 0.4
Gene YGR156W
  The level of expressed mRNA in the presence of chemical substance/absence: YGR156W: 1.8
Gene YGR198W
  The level of expressed mRNA in the presence of chemical substance/absence: YGR198W: 1.3
Gene YGR210C
  The level of expressed mRNA in the presence of chemical substance/absence: YGR210C: 1.0
Gene YGR211W
  The level of expressed mRNA in the presence of chemical substance/absence: YGR211W: 0.8
Gene YGR237C
  The level of expressed mRNA in the presence of chemical substance/absence: YGR237C: 1.6
Gene YGR243W
  The level of expressed mRNA in the presence of chemical substance/absence: YGR243W: 1.1
Gene YGR250C
  The level of expressed mRNA in the presence of chemical substance/absence: YGR250C: 1.7
Gene YGR266W
  The level of expressed mRNA in the presence of chemical substance/absence: YGR266W: 1.1
Gene YGR277C
  The level of expressed mRNA in the presence of chemical substance/absence: YGR277C: 1.6
